From US5449680A, “2,2 disubstituted glycerol and glycerol-like compounds, compositions and methods of use” (Schering Corporation, priority 1992, dated 1995)

Test system: PAF-induced platelet aggregation
Experiment: PAF-induced platelet aggregation in human platelet-rich plasma (PRP), in vitro PAF antagonism assay
Type: cell-based
Conditions: 37° C, 2 min preincubation, PAF 1-5×10^-8 M, read-out: Percent Inhibition
Description: These test procedures are standard tests used to determine PAF antagonistic activity and to evaluate the usefulness of said compounds for counteracting the biological effects of PAF. The in vitro assay is a simple screening test, while the in vivo test mimics clinical use of the compounds described herein.
Preparation of platelet-rich plasma (PRP): Human blood (50 ml) was collected from healthy male donors in an anticoagulant solution (5 ml) containing sodium citrate (3.8%) and dextrose (2%). Blood was centrifuged at 110× g for 15 min. and the supernatant (PRP) carefully transferred into a polypropylene tube. Platelet-poor-plasma (PPP) was prepared by centrifuging PRP at 12,000× g for 2 min. (Beckman Microfuge B). PRP was used within 3 hours of drawing the blood.
Platelet Aggregation Assay: When an aggregating agent such as PAF is added to PRP, platelets aggregate. An aggregometer quantifies this aggregation by measuring light transmission through PRP and comparing to PPP. The aggregation assays were performed using a dual channel aggregometer (Model 440, Chrono-Log Corp., Havertown, Penn.). PRP (0.45 ml)in aggregometer cuvettes was continually stirred (37° C). Solutions of test compounds or vehicle were added to the PRP, and after incubation for 2 min., 10-15 […] aliquots of PAF solution were added so as to achieve a final concentration of 1-5×10^-8 M. Incubations were continued until the increase in light transmission reached a maximum (usually 2 min). Values for inhibition were calculated by comparing maximal aggregation obtained in the absence and the presence of the compound. For each experiment, a standard PAF antagonist such as alprazolam was used as a positive internal control. The inhibitory concentration (IC50)is the concentration of compound in micromoles at which 50% of the aggregation is inhibited, as measured by the light transmission through each sample of PRP as compared to PPP.

Structure (SMILES)	inhibition at 50 µM [%]	other results
CCCCCCCCCCCCCCCCCCN(C)C(=O)OCC(C)(COP(=O)([O-])OCC[n+]1ccsc1)OC (centres unmarked)	–	inhibition at 5 µM (Dose 5 μM): 50%
CCCCCCCCCCCCCCCCCCNC(=O)OCC(C)(COP(=O)([O-])OCC[n+]1ccsc1)OC (centres unmarked)	–	inhibition at 10 µM: 50%
CCCCCCCCCCCCCCCCOCC(C)(COC(=O)OCC[N+](C)(C)C)OC (centres unmarked)	–	inhibition at 100 µM (Dose 100 μM): 100%
CCCCCCCCCCCCCCCCOCC(C)(COC(=O)OCC[N+]1(C)CCCC1)OC (centres unmarked)	32	–
CCCCCCCCCCCCCCCCCCN(C)C(=O)OCC(C)(COP(=O)([O-])OCC[n+]1ccccc1)OC (centres unmarked)	43	–
CCCCCCCCCCCCCCCCCCN(C)C(=O)OCC(C)(COCCCCCCC[n+]1ccsc1)OC (centres unmarked)	100	–
CCCCCCCCCCCCCCCCCCN(C)C(=O)OCC(CC)(COP(=O)([O-])OCC[n+]1ccsc1)OC (centres unmarked)	100	–
CCCCCCCCCCCCCCCCCCN(C)C(=O)OCC(CC)(COP(=O)(O)OCCn1ccnc1)OC (centres unmarked)	23	–
CCCCCCCCCCCCCCCCOCC(C)(COC(=O)OCC[n+]1ccccc1)OC (centres unmarked)	68	–
CCCCCCCCCCCCCCCCCCN(C)C(=O)OCC(COP(=O)([O-])OCC[n+]1ccsc1)(OC)C(C)C (centres unmarked)	100	–
CCCCCCCCCCCCCCCCCCN(C)C(=O)OCC(C)(COCCCCCCC[n+]1ccsc1)SC (centres unmarked)	100	–
CCCCCCCCCCCCCCCCCCN(C)C(=O)OCC(C)(COC(=O)NCC[N+](C)(C)C)OC (centres unmarked)	67	–
CCCCCCCCCCCCCCCCCCN(C)C(=O)OCC(C)(COC(=O)NCC[n+]1ccsc1)OC (centres unmarked)	97	–
CCCCCCCCCCCCCCCCCCN(C)C(=O)OCC(C)(COCCCCCCC[n+]1ccsc1)[S+](C)[O-] (centres unmarked)	100	–
CCCCCCCCCCCCCCCCOCC(C)(COC(=O)NCC[n+]1ccsc1)OC (centres unmarked)	44	–
CCCCCCCCCCCCCCCCCCN(C)C(=O)OCC(C)(COCCCC[n+]1ccsc1)OC (centres unmarked)	–	inhibition at 10 µM: 100%
CCCCCCCCCCCCCCCCCCN(C)C(=O)OCC(C)(COC(=O)N(CC[n+]1ccccc1)C(C)=O)OC (centres unmarked)	–	inhibition at 10 µM: 100%
CCCCCCCCCCCCCCCCCCN(C)C(=O)OCC(C)(COCCCCCCCN1CCSC1)OC (centres unmarked)	10	–

Structure (SMILES)	inhibition at 50 µM [%]	other results
CCCCCCCCCCCCCCCCCCN(C)C(=O)OCC(C)(COCCCCCCCn1cc[n+](C)c1)OC (centres unmarked)	–	inhibition at 10 µM: 93%
CCCCCCCCCCCCCCCCCCN(C)C(=O)OCC(C)(COCCCCCCC[N+]1(C)CCSC1)OC (centres unmarked)	–	inhibition at 10 µM: 93%
CCCCCCCCCCCCCCCCCCN(C)C(=O)OCC(C)(COCCCCCCCn1cnc(CC(=O)OCc2ccccc2)c1)OC (centres unmarked)	19	–
CCCCCCCCCCCCCCCCCCN(C)C(=O)OCC(C)(COCCCCCCCn1cnc(CC(=O)O)c1)OC (centres unmarked)	19	–
CCCCCCCCCCCCCCCCCCN(C)C(=O)OCC(C)(COCCCCCCCOC(=O)C1CSCN1)OC (centres unmarked)	3	–
CCCCCCCCCCCCCCCCCCN(C)C(=O)OCC(C)(COCc1ccc(C[n+]2ccsc2)cc1)OC (centres unmarked)	100	–
CCCCCCCCCCCCCCCCCCN(C)C(=O)OCC(C)(COCCCCCCC[n+]1ccsc1)S(C)(=O)=O (centres unmarked)	100	–
CCCCCCCCCCCCCCCCCCN(C)C(=O)OCC(C)(CC)COCCCCCCC[n+]1ccsc1 (centres unmarked)	100	–
CCCCCCCCCCCCCCCCCCN(C)C(=O)OCC(C)(COCCCCCCCOC(=O)C(N)CSC)OC (centres unmarked)	28	–
CCCCCCCCCCCCCCCCCCN(C)C(=O)OCC(C)(CNC(=O)OCC[n+]1ccccc1)OC (centres unmarked)	100	–
CCCCCCCCCCCCCCCCCCN(C)C(=O)OCC(C)(COC(=O)NCCCCC[n+]1ccsc1)OC (centres unmarked)	100	–
CCCCCCCCCCCCCCCCCCN(C)C(=O)OCC(C)(CNC(=O)OCC[N+](C)(C)C)OC (centres unmarked)	83	–
CCCCCCCCCCCCCCCCCCN(C)C(=O)OCC(C)(CNS(=O)(=O)CCn1ccnc1)OC (centres unmarked)	12	–
CCCCCCCCCCCCCCCCCCN(C)C(=O)OCC(C)(COCCCCCCCn1ccnc1N)OC (centres unmarked)	17	–
COC(C)(COCCCCCCC[n+]1ccsc1)COC(=O)Nc1ccccc1 (centres unmarked)	100	–
CC(COCc1ccc(CN2CCSC2=N)cc1)(COC(=O)Nc1ccccc1)S(C)(=O)=O (centres unmarked)	90	–
COC(C)(COCCCCCCCN1CCSC1=N)COC(=O)Nc1ccc(F)cc1F (centres unmarked)	91	–
